Laboratory results from patent US11472814B2, “Thienopyranones and furanopyranones as checkpoint inhibitors and modulators of anti-tumor immunity” (SignalRx Pharmaceuticals, Inc., priority 2017, dated 2022).
Values joined by “and” are separate entries in the source; they are usually repeats but may differ in a detail not shown here. Equal entries are not always repeated.

Legend:
PI3K α = target: T1, PI3K α (Homo sapiens, UniProt P42336); experiment: PI3K alpha inhibition IC50 (Thermo Fisher); assay type: biochemical; settings: 10-point curve
T1 construct: purchased Thermo Fisher Scientific-Biosciences Life Sciences Solutions, Madison, Wis; (contract assay service)
T1 sequence (P42336 whole entry): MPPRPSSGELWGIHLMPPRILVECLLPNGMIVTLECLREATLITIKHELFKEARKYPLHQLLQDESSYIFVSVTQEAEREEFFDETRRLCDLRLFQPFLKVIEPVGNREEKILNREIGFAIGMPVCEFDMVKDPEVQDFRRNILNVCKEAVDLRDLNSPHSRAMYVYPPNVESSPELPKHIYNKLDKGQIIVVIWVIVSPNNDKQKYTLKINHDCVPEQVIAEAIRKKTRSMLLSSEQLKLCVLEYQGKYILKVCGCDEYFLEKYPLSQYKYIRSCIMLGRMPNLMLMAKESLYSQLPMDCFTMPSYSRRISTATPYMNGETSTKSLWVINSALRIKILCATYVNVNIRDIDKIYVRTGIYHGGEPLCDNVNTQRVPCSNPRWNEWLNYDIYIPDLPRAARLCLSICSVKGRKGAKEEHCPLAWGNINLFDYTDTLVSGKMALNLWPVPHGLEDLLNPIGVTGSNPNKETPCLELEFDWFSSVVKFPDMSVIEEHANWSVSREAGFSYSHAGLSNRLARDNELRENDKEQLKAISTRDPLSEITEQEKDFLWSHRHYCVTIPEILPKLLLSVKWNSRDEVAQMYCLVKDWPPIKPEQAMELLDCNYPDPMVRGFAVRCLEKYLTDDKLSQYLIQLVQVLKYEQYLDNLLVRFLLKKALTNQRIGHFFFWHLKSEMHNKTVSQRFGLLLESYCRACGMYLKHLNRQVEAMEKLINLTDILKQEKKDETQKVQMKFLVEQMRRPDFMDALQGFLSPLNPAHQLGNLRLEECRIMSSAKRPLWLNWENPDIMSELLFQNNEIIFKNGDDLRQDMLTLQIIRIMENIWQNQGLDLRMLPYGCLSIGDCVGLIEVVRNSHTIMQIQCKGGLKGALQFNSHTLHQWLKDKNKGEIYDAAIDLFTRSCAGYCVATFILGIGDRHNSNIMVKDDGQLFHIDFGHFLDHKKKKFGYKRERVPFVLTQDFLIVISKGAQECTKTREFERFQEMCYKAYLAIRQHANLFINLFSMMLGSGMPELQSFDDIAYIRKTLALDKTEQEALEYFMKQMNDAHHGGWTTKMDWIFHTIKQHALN
T1 sequence (P27986 whole entry partner): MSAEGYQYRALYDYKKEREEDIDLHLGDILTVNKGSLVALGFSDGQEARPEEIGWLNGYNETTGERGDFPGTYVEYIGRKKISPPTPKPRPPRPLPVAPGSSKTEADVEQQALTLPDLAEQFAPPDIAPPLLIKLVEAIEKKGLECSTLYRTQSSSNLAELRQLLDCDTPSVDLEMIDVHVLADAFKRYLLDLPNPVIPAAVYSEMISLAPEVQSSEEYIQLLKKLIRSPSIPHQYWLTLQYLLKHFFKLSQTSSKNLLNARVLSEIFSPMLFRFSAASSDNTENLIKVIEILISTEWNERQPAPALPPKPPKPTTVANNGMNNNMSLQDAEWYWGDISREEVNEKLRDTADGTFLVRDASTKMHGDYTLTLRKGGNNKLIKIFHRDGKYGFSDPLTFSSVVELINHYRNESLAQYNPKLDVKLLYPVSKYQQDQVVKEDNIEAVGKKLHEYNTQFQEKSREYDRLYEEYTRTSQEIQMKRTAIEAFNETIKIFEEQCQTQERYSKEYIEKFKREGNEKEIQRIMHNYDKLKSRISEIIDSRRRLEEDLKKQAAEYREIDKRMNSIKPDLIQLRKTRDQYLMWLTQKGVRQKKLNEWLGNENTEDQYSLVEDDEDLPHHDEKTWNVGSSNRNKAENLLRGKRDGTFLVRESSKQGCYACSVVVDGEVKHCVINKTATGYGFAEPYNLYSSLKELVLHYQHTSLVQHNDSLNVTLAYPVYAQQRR
Description: (§1) The inhibitory activity of a compound of the invention against PI3K and/or BRD4 and/or SYK and/or CDK4/6 can be readily determined using methods known to the skilled artisan, or by commercial vendors offering such services. […] In vivo, PI3K inhibition can be determined from target tissue biopsies by standard tissue processing to disrupt cells and then performing Western Blot analysis to determine the presence or absence of pAKT (substrate of PI3K) relative to a control sample. The activity of a compound of the invention as an inhibitor of a bromodomain-containing protein, such as a BET protein, such as BRD2, BRD3, BRD4, and/or BRDT, or an isoform or mutant thereof, may be determined in vitro, in vivo, or in a cell line. In vitro assays include assays that determine inhibition of bromodomain-containing proteins. Alternatively, inhibitor binding may be determined by running a competition experiment where a provided compound is incubated with a bromodomain-containing protein, such as a BET protein bound to known ligands, labeled or unlabeled. For example, bromodomain inhibition can be determined in vitro using Alpha Screen Technology (http://www.reactionbiologv.com/webapps/site/NewsPDFs/Bromodomain%20Assay %20Platform %20for %20Drug %20Screening %20and %20Discovery.pdf). In vivo bromodomain inhibition can be determined indirectly by evaluating the amount of protein present of proteins whose genes' transcription is influenced or controlled by the bromodomain protein, for example, the MYCN protein transcription is controlled by BRD4 (J. E. Delmore et al., Cell 2011, 146, 904-917; A. Puissant, Cancer Discov. 2013, 3, 308-323). Bromodomain inhibition may also be predicted by in silico modeling as described below in the Examples. Additionally, the company Promega offers a SYK luminescent assay to determine a compound's ability to inhibit the SYK protein (https://www.promega.com/-/media/files/resources/protocols/kinase-enzyme-appnotes/syk-kinase-assay-protocol.pdf?la=en).
Compounds of the invention were characterized for their ability to inhibit target proteins using third party vendors offering such services. PI3K alpha, gamma, and delta inhibition activity was determined by Thermo Fisher Scientific-Biosciences Life Sciences Solutions, Madison, Wis. The bromodomain protein inhibition (binding domain 1 and 2 of BRD4) as well as SYK inhibition was determined at Reaction Biology Corp., Malvern, Pa. […] The IC50 data (shown below in Table 5) was calculated from a 10-point curve and is expressed in nanomolar concentration (nM) rounded off to the nearest whole number. […]

SYK = target: T2, SYK (Homo sapiens, UniProt P43405); experiment: SYK inhibition IC50 (Reaction Biology Corp.); assay type: biochemical; settings: 10-point curve; read-out: SYK IC50
T2 construct: purchased Reaction Biology Corp., Malvern, Pa; (contract assay service)
Description: as §1
Compounds of the invention were characterized for their ability to inhibit target proteins using third party vendors offering such services. PI3K alpha, gamma, and delta inhibition activity was determined by Thermo Fisher Scientific-Biosciences Life Sciences Solutions, Madison, Wis. The bromodomain protein inhibition (binding domain 1 and 2 of BRD4) as well as SYK inhibition was determined at Reaction Biology Corp., Malvern, Pa. Additional information on each of the assays performed and services provided is available at each company's website on the internet (https://www.thermofisher.com/us/en/home/life-science.html and http://www.reactionbiology.com/webapps/site, respectively). The IC50 data (shown below in Table 5) was calculated from a 10-point curve and is expressed in nanomolar concentration (nM) rounded off to the nearest whole number. Where multiple values were obtained the range from lowest to highest values is presented. NI=no inhibition detected up to 50 uM or IC50 not reached at 50 uM.

[1] = test system: Bone marrow derived macrophages (BMDMs), M1 gene expression; experiment: M1 marker mRNA in LPS stimulated bone marrow derived macrophages (RT PCR); assay type: cell-based, murine
Description: […] M2 markers Mmr, Ym1, Fizz1 and Mgl mRNA and M1 markers I11, 116 and Tnfa mRNA was quantitated by RT PCR. Values are mean±SEM (n=3-4). Expression of gene of interest is normalized to GAPDH. […] The data provide direct evidence that Compound 1 can block the immunosuppressive macrophage M2 gene expression and activate the M1 gene expression and therefore activate antitumor innate immune cell differentiation in vitro.
Relative mRNA expression of IL4 or LPS polarized genes in murine bone marrow derived macrophages (BMDMs) treated with various concentrations of inhibitors in vitro. Conclusion: Compound 3 suppressed in vitro macrophage specific immunosuppressive M2 gene expression markers and augmented macrophage stimulatory immune response M1 genes respectively.

CT26 tumors = experiment: CT26 tumor growth in immunocompetent Balb/c mice; assay type: in vivo
Description: (§2) We investigated the effect of Compound 3 on immune cell in vitro and on tumor growth in in vivo in immunocompetent syngeneic tumor models and the effects on the macrophage and T cell immune compartment in vivo by this compound. […] In order to distinguish whether Compound 3 blocks tumor growth due to its effect on immune cell compartment and not on tumor compartment, we tested the effect of this chemotype on CT26 tumor growth in immunodeficient NSG mice vs immunocompetent Balb/c mice. […] Compound 3 has combinatorial immune-oncologic activity in vivo to stimulate anti-cancer innate and adaptive immunity in well-defined accepted immune competent murine models for cancer immunotherapy.
Tumor volumes of CT26 inoculated subcutaneously in Balb/c mice treated with 3 mg/Kg Compound 3, or 200 ug anti-PDL1 or both. Conclusion: Compound 3 has greater antitumor immune activating activity as compared to anti-PDL1 monoclonal antibody treatment in this in vivo immune-oncology model. Compound 3 suppressed tumor growth by 88% in this model (n=6, p<0.001, t test) as compared to vehicle control treated mice.
Conclusion: this establishes effect of Compound 3 as immune-oncologically active agent in cancer immunotherapy. In immunocompetent mice with same tumor cell ino kculum Compound 3 inhibited CT26 tumor growth by 58% decrease in tumor volume. (n=x, p<0.001, t test).
(§3) In contrast to above data, Compound 3 has a marked significant inhibitory effect on CT26, LLC and MC38 tumor growth in immunocompetent murine models. Conclusion: this establishes effect of Compound 3 as immune-oncologically active agent in cancer immunotherapy. In immunocompetent mice with same tumor cell inoculum Compound 3 inhibited tumor growth by from 58-68%. p<0.001 in all experiments compared to vehicle control.

MC38 tumors = experiment: MC38 tumor growth in immunocompetent murine model; assay type: in vivo; settings: vs vehicle
Description: as §2, §3

[2] = Table 8, 200 nM, LPS polarized murine BMDMs, control = 1

- IC50 (PI3K α): 100 to 1000 nM
- IC50 (SYK): < 100 nM
Structure (SMILES): Cc1nn(-c2ccnc(Nc3ccc(-c4csc5c(=O)cc(N6CCOCC6)oc45)cc3)n2)cc1CN1CCC1 [Compound 3, 3-[p-(4-{4-[(1-Azetidinyl)methyl]-3-methyl-1H-pyrazol-1-yl}-2-pyrimidinylamino)phenyl]-5-morpholino-4-oxa-1-thia-7-indenone]
- Ifng relative mRNA expression (M1 gene) [1, 2]: 5.043 ± 1.9
- Il1 relative mRNA expression (M1 gene) [1, 2]: 7.19 ± 0.9
- Il6 relative mRNA expression (M1 gene) [1, 2]: 2.5 ± 0.2
- Nos2 relative mRNA expression (M1 gene) [1, 2]: 2.458 ± 0.31
- Tnfa relative mRNA expression (M1 gene) [1, 2]: 2.2 ± 0.3
- macrophage stimulatory immune response M1 genes ([1]; murine BMDMs, LPS polarized, various concentrations): augmented
- CT26 tumor growth suppression (CT26 tumors; Balb/c mice, 3 mg/Kg, n=6, vs vehicle): 88%
- % Growth inhibition compared to control (CT26 tumors; CT26 subcutaneous in Balb/c mice, 3 mg/Kg Compound 3, 200 ug anti-PDL1 or both, n=6): 88 ± 10%
- % Growth inhibition of CT26 tumor (CT26 tumors; immunocompetent Balb/c mice, vs vehicle): 58% and 58 +/− 10%
- CT26 tumor growth, combination (CT26 tumors; in combination with anti-PDL1 antibody): decrease in tumor growth
- % Growth inhibition of MC38 tumor (MC38 tumors): 62 +/− 24%
